Data set [1] has as its target T1, Human COX-2 (Homo sapiens, UniProt P35354).
T1 construct: 500 μl of peripheral blood collected from a healthy volunteer; endogenous in cells; host or cells: human whole peripheral blood from a healthy volunteer, stimulated with LPS
T1 sequence (P35354 18-604): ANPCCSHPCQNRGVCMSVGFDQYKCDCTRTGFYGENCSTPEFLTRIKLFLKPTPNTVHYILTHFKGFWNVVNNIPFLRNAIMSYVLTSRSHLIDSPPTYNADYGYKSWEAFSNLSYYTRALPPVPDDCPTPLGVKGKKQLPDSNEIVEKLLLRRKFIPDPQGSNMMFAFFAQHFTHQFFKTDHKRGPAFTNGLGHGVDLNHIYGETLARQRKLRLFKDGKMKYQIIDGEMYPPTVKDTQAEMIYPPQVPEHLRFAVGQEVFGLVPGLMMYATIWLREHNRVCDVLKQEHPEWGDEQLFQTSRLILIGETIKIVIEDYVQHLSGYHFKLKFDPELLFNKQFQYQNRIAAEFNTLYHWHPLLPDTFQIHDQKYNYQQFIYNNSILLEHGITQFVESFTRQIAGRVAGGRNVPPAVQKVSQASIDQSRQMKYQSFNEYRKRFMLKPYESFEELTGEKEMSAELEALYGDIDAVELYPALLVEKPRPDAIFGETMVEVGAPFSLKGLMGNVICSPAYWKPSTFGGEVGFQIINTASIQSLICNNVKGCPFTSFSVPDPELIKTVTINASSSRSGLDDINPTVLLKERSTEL
Kind of data set: Inhibitory activity against human COX-2 using peripheral blood (LPS-stimulated, thromboxane B2 EIA). It is filed as cell-based. As to conditions: LPS 10 μg/ml, 37° C. 5 hours. As to the method:
(§1) Method for Measuring Inhibitory Activity Against Human COX-1 and COX-2 Using Peripheral Blood
(§2) 1 μl of a solution of the compound of the present invention in DMSO was added to 500 μl of peripheral blood collected from a healthy volunteer.
In the case of measuring COX-2 activity, LPS (E. coli 026:B6) was added onto blood to which the compound has been added to a concentration of 10 μg/ml followed by incubating at 37° C. for 5 hours and transferring onto ice to stop the reaction.

Data set [2] addresses T2, Human COX-1 (Homo sapiens, UniProt P23219).
T2 construct: 500 μl of peripheral blood collected from a healthy volunteer; endogenous in cells; host or cells: human whole peripheral blood from a healthy volunteer, stimulated with calcium ionophore A23187
Kind of data set: Inhibitory activity against human COX-1 using peripheral blood (calcium ionophore A23187, thromboxane B2 EIA). It is filed as cell-based. As to conditions: 37° C. 4.5 hours then A23187 500 μM 30 minutes. How it is done:
as §1, §2
In the case of measuring COX-1 activity, after incubating at 37° C. for 4.5 hours, calcium ionophore A23187 was added to a final concentration of 500 μM followed by additional incubation at 37° C. for 30 minutes and transferring to ice to stop the reaction.

SMILES strings stand for the structures.

As a reminder, the IC50 is the concentration that inhibits the measured activity by half. What is called melting point is the temperature, or range, at which the solid turns liquid.

T2 sequence (P23219 24-599): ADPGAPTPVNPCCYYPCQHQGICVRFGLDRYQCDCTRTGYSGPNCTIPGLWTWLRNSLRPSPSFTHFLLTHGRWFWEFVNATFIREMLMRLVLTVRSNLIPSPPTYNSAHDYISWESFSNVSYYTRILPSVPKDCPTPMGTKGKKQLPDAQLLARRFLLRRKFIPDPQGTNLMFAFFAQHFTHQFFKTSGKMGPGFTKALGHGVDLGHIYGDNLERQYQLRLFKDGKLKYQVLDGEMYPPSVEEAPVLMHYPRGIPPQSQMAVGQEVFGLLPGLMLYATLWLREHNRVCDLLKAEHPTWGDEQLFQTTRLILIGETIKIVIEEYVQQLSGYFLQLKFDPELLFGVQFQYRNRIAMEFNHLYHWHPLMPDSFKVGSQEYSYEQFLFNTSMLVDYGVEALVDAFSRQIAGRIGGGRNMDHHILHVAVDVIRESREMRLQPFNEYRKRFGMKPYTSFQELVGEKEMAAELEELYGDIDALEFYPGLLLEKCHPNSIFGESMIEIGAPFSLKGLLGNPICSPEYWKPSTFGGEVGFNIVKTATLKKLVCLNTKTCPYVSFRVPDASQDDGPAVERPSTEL

As to `CS(=O)(=O)c1cnc2c(c1)cc(-c1ccco1)n2Cc1ccc(F)cc1` [Example 1, 2-(2-Furyl)-1-(4-fluorobenzyl)-5-methanesulfonyl-1H-pyrrolo[2,3-b]pyridine], the results for the IC50 in data set [1] and in data set [2] were 150 nM and over 20000 nM, respectively.
For the compound `CS(=O)(=O)c1ccc2c(c1)cc(-c1nccs1)n2Cc1ccc(F)cc1` [Example 2, 1-(4-Fluorobenzyl)-5-methanesulfonyl-2-(thiazol-2-yl)indole], the IC50 in data set [1] was 500 nM; in data set [2], over 20000 nM.
With `CS(=O)(=O)c1cnc2c(c1)cc(-c1ncco1)n2Cc1ccc(F)cc1` [Example 3, 1-(4-Fluorobenzyl)-2-(oxazol-2-yl)-5-methanesulfonyl-1H-pyrrolo[2,3-b]pyridine], the melting point lay within 200 to 201 °C. In data set [1], the half-inhibitory concentration (IC50) was 300 nM. Further, the IC50 in data set [2] is over 20000 nM.
`CS(=O)(=O)c1ccc2c(c1)cc(-c1nnco1)n2Cc1ccc(F)cc1` [Example 4, 1-(4-Fluorobenzyl)-5-methanesulfonyl-2-([1,3,4]oxadiazol-2-yl)indole]: the IC50 in data set [1] was 4000 nM; in data set [2] it was over 20000 nM.
For `CS(=O)(=O)c1cnc2c(c1)cc(-c1ccccn1)n2Cc1ccc(F)cc1` [Example 5, 5-Methanesulfonyl-2-(2-pyridyl)-1-(4-fluorobenzyl)-1H-pyrrolo[2,3-b]pyridine] the same measures were 400 nM and over 20000 nM.
For `CS(=O)(=O)c1cnc2c(c1)cc(-c1ncccn1)n2CC1CCCCC1` [Example 7, 1-Cyclohexylmethyl-5-methanesulfonyl-2-(2-pyrimidinyl)-1H-pyrrolo[2,3-b]pyridine] the same measures were 1500 nM and over 20000 nM.
On the same counts, the results for `CS(=O)(=O)c1ccc2c(c1)cc(-c1ccco1)n2Cc1ccc(F)cc1` [Example 8, 2-(2-Furanyl)-1-(4-fluorobenzyl)-5-methanesulfonyl-1H-indole] are 800 nM and over 20000 nM.
`CS(=O)(=O)c1ccc2c(c1)cc(-c1ccco1)n2CC1CCCCC1` [Example 9, 1-Cyclohexylmethyl-2-(2-furanyl)-5-methanesulfonylindole]: the IC50 in data set [1] was 2000 nM; in data set [2] it was over 20000 nM.
On the same counts, the results for `CS(=O)(=O)c1cnc2c(c1)cc(-c1ccco1)n2Cc1ccccn1` [Example 10, 2-(2-Furanyl)-5-methanesulfonyl-1-(2-pyridylmethyl)-1H-pyrrolo[2,3-b]pyridine] are 1500 nM and over 20000 nM.
On the same counts, the results for `Cc1ccc(-c2cc3cc(S(C)(=O)=O)cnc3n2Cc2ccc(F)cc2)o1` [Example 11, 1-(4-Fluorobenzyl)-5-methanesulfonyl-2-(5-methylfuran-2-yl)-1H-pyrrolo[2,3-b]pyridine] are 200 nM and over 20000 nM.
On the same counts, the results for `CS(=O)(=O)c1cnc2c(c1)cc(-c1ccco1)n2CC1CCCCC1` [Example 12, 2-(2-Furanyl)-1-cyclohexylmethyl-5-methanesulfonyl-1H-pyrrolo[2,3-b]pyridine] are 150 nM and over 20000 nM.
`CS(=O)(=O)c1ccc2c(c1)cc(C1CCCO1)n2Cc1ccc(F)cc1` (stereo not shown) [Example 13, 2-(2-Tetrahydrofuranyl)-1-(4-fluorobenzyl)-5-methanesulfonyl-indole]: the IC50 was 4000 nM in data set [1] and over 10000 nM in data set [2].
For `CS(=O)(=O)c1ccc2c(c1)cc(C1=CCOCC1)n2Cc1ccc(F)cc1` [Example 14, 2-(5,6-Dihydro-2H-4-pyranyl)-1-(4-fluorobenzyl)-5-methanesulfonyl-indole] the same measures were 100 nM and over 20000 nM.
On the same counts, the results for `CNC(=O)c1ccc(-c2cc3cc(S(C)(=O)=O)ccc3n2Cc2ccc(F)cc2)nc1` [Example 17, 1-(4-Fluorobenzyl)-5-methanesulfonyl-2-(5-methylaminocarbonylpyridin-2-yl)indole] are 800 nM and over 20000 nM.
On the same counts, the results for `CS(=O)(=O)c1cnc2c(c1)cc(-c1nnco1)n2Cc1ccc(F)cc1` [Example 33, 1-(4-Fluorobenzyl)-5-methanesulfonyl-2-([1,3,4]oxadiazol-2-yl)-1H-pyrrolo[2,3-b]pyridine] are 200 nM and over 20000 nM.

For the origin of these results see patent US6875770B2, “Indole derivative having heterocycle and mono- or diazaindole derivative” (Chugai Seiyaku Kabushiki Kaisha, priority 1998, dated 2005).
